Laboratory results: patent EP4268823A1, “COMPOUND FOR TREATING NEUROINFLAMMATION” (Universitätsklinikum Hamburg-Eppendorf, priority 2022, dated 2023)

How the values were obtained:
[1] = tested on: cyclooxygenase-2 (COX-2); assay: COX-2 immunostaining after glutamate stimulation; type: cell-based, mouse; settings: glutamate excitotoxicity ± UNC0642
Procedure: For primary cortical cultures pregnant C57BL/6J, or G9afl/fl;Snap25-Cre mice were euthanized. To ensure comparability between genotypes, only embryos from heterozygous breeding's were used. Brainstem tissue of each embryo for genotyping was reserved and cortices were isolated, dissociated and cells were plated at a density of 1 × 10^5 cells per 1 cm^2 on poly-D-lysine-coated wells (5 µM Sigma-Aldrich, cat. no. A-003-M). If not stated otherwise, cells were maintained in neurobasal plus medium (supplemented with B27 plus, penicillin, streptomycin and L-glutamine; Gibco, cat. no. A3582901) at 37°C, 5% CO^2 and a relative humidity of 98%, and treated with 1 µM cytarabine (Sigma-Aldrich, cat. no. BP383) at 1 day in vitro (div) to inhibit glial cell proliferation. If no cytarabine was applied cells were maintained in PNBM medium (supplemented with neural cell survival factor, gentamycin and L-glutamine; Lonza). Throughout, cultures after 14-23 div were used for experiments. G9a inhibitor UNC0642 was used in a concentration of 1 µM and cultures were pre-treated 24 hours before further experimental procedures.
Immunocytochemistry was performed as described previously (15). […] Immunostainings were analyzed with a Zeiss LSM 700 confocal microscope.

[2] = tested on: ferroptosis-related genes; assay: mRNA expression of ferroptosis-related genes in erastin-treated hiPSC-neurons; type: cell-based; settings: erastin-treated human neurons ± UNC0642
Description: Human iPSCs (ZIPi013-B) (83) were maintained under feeder-free conditions on Matrigel (Corning)-coated plates in mTeSR1 medium (Stem Cell Technologies, cat. no. 85850). For neuronal induction, iPSCs were dissociated with Accutase and seeded at a density of 3 × 10^6 cells per well on AggreWell800 plates (10,000 cells per embryoid body (EB), Stem Cell Technologies) in SMADi Neural Induction Medium (SMADi NIM, Stem Cell Technologies, cat. no. 08582) supplemented with […] (Stem Cell Technologies, cat. no. 72302). On day 6, EBs were harvested and cultivated on Matrigel-coated plates in SMADi NIM for 12 days. Newly formed neural rosettes were manually picked and cultured for another 4 days. In order to release neural precursor cells (NPCs), neural rosettes were dissociated with Accutase and were maintained for several passages at high density in Neural Progenitor Medium (Stem Cell Technologies, cat. no. 05833) on Matrigel-coated plates. HiPSC-derived NPCs were differentiated into neurons as previously described (84, 85) with some modifications. Briefly, NPCs were seeded at a density of 1 × 10^5 cells per cm^2 in Neural Progenitor Medium onto Matrigel-coated plates. […]
RNA was extracted using RNeasy Mini Kit (Qiagen) and subsequently reverse-transcribed to complementary DNA with the RevertAid H Minus First Strand cDNA Synthesis Kit (Thermo Fisher Scientific) according to the manufacturer's instructions. Gene expression was analyzed by real-time PCR performed in an ABI Prism 7900 HT Fast Real-Time PCR System (Applied Biosystems) using TaqMan Gene Expression Assays (Thermo Fisher Scientific). Gene expression was calculated as 2-ΔCt relative to Tbp as the endogenous control.

COc1cc2c(NC3CCN(C(C)C)CC3)nc(N3CCC(F)(F)CC3)nc2cc1OCCCN1CCCC1 [UNC0642, 2-(4,4-difluoropiperidin-1-yl)-6-methoxy-N-[1-(propan-2-yl)piperidin-4-yl]-7-[3-(pyrrolidin-1-yl)propoxy]quinazolin-4-amine] was tested, and the “induction of COX-2-positive cells” value [1] was “almost completely abolished its induction”, the “mRNA expression of GPX4” value [2] was “significant upregulation” and the “mRNA expression of Gclc” value [2] was “significant upregulation”. For the same compound, the “mRNA expression of SLC7A11” value [2] was “highly upregulated”.
